Our source for the IC50 values is patent US20070123546A1, “2-amino-7,8-dihydro-6H-pyrido[4,3-d]pyrimidin-5-ones” (Chiron Corporation, priority 2005, published 2007).

pIC50: −log10 of the molar value. Where only a bound is given, the exact number is not on record here.

The first assay concerns the target His-tagged N-terminal ATP binding domain (amino acid residues 9-236) of HSP90α (Homo sapiens, UniProt P07900). Kind of assay: HSP90 inhibitor binding potency: TRF competition binding assay. As to conditions: Table 1; competition with biotinylated radicicol. As to the method: HSP90 Inhibitor Binding Potency: TRF Binding Assay
In this example, the binding potency of HSP90 inhibitors as measured by a TRF binding assay is described.
TRF competition binding assays were performed to determine the binding potency (IC50 values) of HSP90 inhibitors. Purified His-tagged N-terminal ATP binding domain (amino acid residues 9-236) of HSP90α (HSP90α GeneID: 3320; mRNA Sequence NM_005348) was incubated for two hours at room temperature in binding buffer (50 mM HEPES, 6 mM MgCl2, 20 mM KCl and 0.1% BSA) with biotinylated radicicol and progressively higher concentrations of the competing compounds. A fraction of the mixture was transferred to capture plates (coated with streptavidin) and incubated for one hour at room temperature. After washing with DELFIA wash buffer, europium-labeled anti-his antibody was added and incubated for two hours at room temperature, followed by washing with DELFIA buffer. DELFIA enhancement solution was then added. After gentle shaking for 10 minutes, the plates were read in VICTOR for europium counts.
As for `COc1cccc(-c2cc(F)ccc2C2Cc3nc(N)nc(C)c3C(=O)N2C)n1` (stereo not shown) [Compound 7, 2-Amino-7-[4-fluoro-2-(6-methoxy-pyridin-2-yl)-phenyl]-4,6-dimethyl-7,8-dihydro-6H-pyrido[4,3-d]pyrimidin-5-one], the pIC50 (usually −log10 of the IC50, conventionally taken in molar units) was greater than 5.00.
Same read-out and setting: then `Cc1nc(N)nc2c1C(=O)N(C)C(c1ccc(F)cc1-c1cccnc1F)C2` (stereo not shown) [Compound 8, 2-Amino-7-[4-fluoro-2-(2-fluoro-pyridin-3-yl)-phenyl]-4,6-dimethyl-7,8-dihydro-6H-pyrido[4,3-d]pyrimidin-5-one], with greater than 5.00.

Still in this assay, the particulars now being: Table 2; competition with biotinylated radicicol.
`Cc1ccc(-c2cc(F)ccc2[C@H]2Cc3nc(N)ncc3C(=O)N2)cc1` [Compound 60, (R)-2-Amino-7-(5-fluoro-4′-methyl-biphenyl-2-yl)-7,8-dihydro-6H-pyrido[4,3-d]pyrimidin-5-one] gave a pIC50 greater than 5.00.
`CCOc1cncc(-c2cc(F)ccc2[C@H]2Cc3nc(N)nc(C)c3C(=O)N2)n1` [Compound 85, (R)-2-Amino-7-[2-(6-ethoxy-pyrazin-2-yl)-4-fluoro-phenyl]-4-methyl-7,8-dihydro-6H-pyrido[4,3-d]pyrimidin-5-one] had a negative-log IC50 (pIC50) greater than 5.00.

The same assay, now with this note: Table 3; competition with biotinylated radicicol.
Take `COc1ncc(-c2cc(F)ccc2[C@H]2Cc3nc(N)nc(C)c3C(=O)N2)nc1OC` [Compound 145, 2-Amino-7-[2-(5,6-dimethoxy-pyrazin-2-yl)-4-fluoro-phenyl]-4-methyl-7,8-dihydro-6H-pyrido[4,3-d]pyrimidin-5-one]: the pIC50 is greater than 5.00.
As for `COc1ccc(-c2cc(F)ccc2[C@H]2Cc3nc(N)nc(C)c3C(=O)N2Cc2ccccc2)cc1F` [Compound 139, (R)-2-Amino-6-benzyl-7-(5,3′-difluoro-4′-methoxy-biphenyl-2-yl)-4-methyl-7,8-dihydro-6H-pyrido[4,3-d]pyrimidin-5-one], the negative logarithm of the IC50 (pIC50) was less than 5.00.
The compound `COc1cccc(-c2cc(F)ccc2[C@H]2Cc3nc(N)nc(C)c3C(=O)N2Cc2ccccc2Cl)n1` [Compound 125, (R)-2-Amino-6-(2-chloro-benzyl)-7-[4-fluoro-2-(6-methoxy-pyridin-2-yl)-phenyl]-4-methyl-7,8-dihydro-6H-pyrido[4,3-d]pyrimidin-5-one] showed a negative logarithm of the IC50 (pIC50) greater than 5.00.
Regarding `COc1nc(-c2cc(F)ccc2[C@H]2Cc3nc(N)nc(C)c3C(=O)N2Cc2ccncc2)cnc1N` [Compound 122, (R)-2-Amino-7-[2-(5-amino-6-methoxy-pyrazin-2-yl)-4-fluoro-phenyl]-4-methyl-6-pyridin-4-ylmethyl-7,8-dihydro-6H-pyrido[4,3-d]pyrimidin-5-one], the pIC50 is greater than 5.00.
Same read-out and setting: then `COc1cccc(-c2scnc2[C@H]2Cc3nc(N)nc(C)c3C(=O)N2)n1` [Compound 172, (R)-2-Amino-7-[5-(6-methoxy-pyridin-2-yl)-thiazol-4-yl]-4-methyl-7,8-dihydro-6H-pyrido[4,3-d]pyrimidin-5-one], with greater than 5.00.

The assay is the same for the next values; noted with them: Table 4; competition with biotinylated radicicol.
The compound `Cc1cc(F)ccc1-c1cc(F)ccc1[C@H]1Cc2nc(N)ncc2C(=O)N1` [Compound 183, (R)-2-Amino-7-(5,4′-difluoro-2′-methyl-biphenyl-2-yl)-7,8-fihydro-6H-pyrido[4,3-d]pyrimidm-5-one] gave a negative-log IC50 (pIC50) greater than 5.00.
The compound `COc1nc(-c2cc(F)ccc2[C@H]2Cc3nc(N)ncc3C(=O)N2)ccc1N` [Compound 208, (R)-2-Amino-7-[2-(5-amino-6-methoxy-pyridin-2-yl)-4-fluoro-phenyl]-7,8-dihydro-6H-pyrido[4,3-d]pyrimidin-5-one] had a pIC50 greater than 5.00.
For the compound `Cc1nc(N)nc2c1C(=O)N[C@@H](c1ccc(F)cc1-c1nccc(N3CCCC3)n1)C2` [Compound 207, (R)-2-Amino-7-[4-fluoro-2-(4-pyrrolidin-1-yl-pyrimidin-2-yl)-phenyl]-4-methyl-7,8-dihydro-6H-pyrido[4,3-d]pyrimidin-5-one], the negative logarithm of the IC50 (pIC50) was no more than 5.00.
With `COc1cc(F)ccc1-c1cc(F)ccc1[C@H]1Cc2nc(N)ncc2C(=O)N1` [Compound 178], the pIC50 is greater than 5.00.
